# Test results as given in patent US20140303144A1, “COMPOUNDS AND METHODS OF TREATING HYPERTENSION” (Medivation Technologies, Inc., priority 2011, published 2014).
# Key:
# SH-SY5Y cells = assay: Cell viability assay (MTS reduction) against 4-Br-A23187 challenge; assay type: cell-based; settings: Homo sapiens, SH-SY5Y, compound 10 nM, 4-Br-A23187 (2 μM) for 24 h, Control = 100, Vehicle = 0, read-out: Relative Cytoprotective capacity
# Description: SH-SY5Y cells cultured in DMEM/F12 media supplemented with 10% FBS were seeded in 96-well microplates at 150,000 cells/cm^2. After 24 h, cells were depleted from FBS and kept in culture for 24 h before the experiment. A stock solution was prepared by dissolving the calcium ionophore 4-Br-A23187 (Calbiochem Cat. N^o 100107) in DMSO at 25 mM. Cells were then treated with 4-Br-A23187 (2 μM), hydrogen peroxide (300 μM) or the mitochondrial toxin rotenone (25 μM) in the presence of vehicle or Compound of the Invention for 24 h. Cell death was determined by measurements of LDH release according to the Cytotoxicity Detection KitPlus (Roche, Mannheim, Germany). Cell viability was determined by measuring the capacity of cells to metabolize MTS tetrazolium (MTS) according to the Cytotoxicity Detection KitPlus (Roche, Mannheim, Germany) and MTS reduction was assessed by the CellTiter 96® AQueous One Solution Cell Proliferation assay (Promega Corporation, Madison, Wis., USA). Compounds were screened at 10 nM, using DMSO as vehicle. Assay results for the experiments with Br-A23187 were presented as the MTS reduction capacity (cell viability) of untreated cells (control), 4-Br-A23187-treated cells (vehicle), and co-incubation of Br-A23187 with Compounds of the Invention treated cells and using […] (FCCP) at 10 μM for 30 min as a control. This assay assesses the ability of the test compounds to protect against cell death that was mediated by mitochondrial dysfunction. In the assay, the calcium ionophore 4-Br-A23187 was used to challenge the cells, causing calcium levels to rise in mitochondria, which leads to depolarization and cell death. Test compounds were assessed for their ability to prevent cell death in response to challenge with 4-Br-A23187.
# [1] = biological target: T1, human recombinant adrenergic α2B receptor (Homo sapiens, UniProt P18089); assay: Adrenergic α2B radioligand binding assay ([3H]Rauwolscine); settings: 0.1 μM compound; read-out: Percentage inhibition of ligand binding, Adrenergic α2B
# T1 construct: expressed in transfected cells; host or cells: CHO-K1 cells
# T1 sequence (P18089 1-450): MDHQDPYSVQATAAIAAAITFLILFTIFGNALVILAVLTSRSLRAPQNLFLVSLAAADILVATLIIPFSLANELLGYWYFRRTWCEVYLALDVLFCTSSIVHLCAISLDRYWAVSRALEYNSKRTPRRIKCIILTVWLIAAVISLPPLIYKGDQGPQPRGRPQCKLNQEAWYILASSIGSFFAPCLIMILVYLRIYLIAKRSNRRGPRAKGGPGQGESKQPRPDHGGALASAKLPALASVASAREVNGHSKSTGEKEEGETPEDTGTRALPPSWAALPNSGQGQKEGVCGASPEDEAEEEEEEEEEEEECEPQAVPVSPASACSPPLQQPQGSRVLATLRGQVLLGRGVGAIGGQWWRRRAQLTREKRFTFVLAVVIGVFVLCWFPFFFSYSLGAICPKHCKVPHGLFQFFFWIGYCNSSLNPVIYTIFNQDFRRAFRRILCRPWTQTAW
# Description: To evaluate in radioligand binding assays the activity of compounds of the invention, human recombinant adrenergic α2B receptor expressed in Chinese hamster ovary (CHO) K1 cells (Uhlen, S. et al, Eur. J. Pharmacol. 343(1):93, 1998) in a modified Tris-HCl buffer (50 mM Tris-HCl, pH 7.4, 12.5 mM MgCl2, 1 mM EDTA, 0.2% BSA) was used. Compounds of the invention were incubated with 2.5 nM [3H]Rauwolscine for 60 min at 25° C. Non-specific binding was estimated in the presence of 10 μM Prazosin. Receptor proteins were filtered and washed, the filters were then counted to determine [3H]Rauwolscine specifically bound. Compounds were screened at 1 μM or lower, using 1% DMSO as vehicle. Compounds of the invention were tested in this biochemical assay and percent inhibition of specific binding was determined. Biochemical assay results are presented as the percent inhibition of specific binding in Tables B1A-B1D.
inhibition at 0.1 µM [1] [%],Compound,viability at 0.01 µM (SH-SY5Y cells) [%]
38,Cc1ccc(C#Cc2cc(Cl)cc3c4c(n(C)c23)CCN(C)C4)cn1 [A18],26
-7,Cc1ccc2c(c1)c1c3n2C(c2ccccc2)CCC3(C)CN(C)C1 (stereo not shown) [D12],32.5
-6,Cc1ccc2c(c1)c1c3n2C(c2ccccc2)=CCC3(C)CN(C)C1 (stereo not shown) [D10],–
21,C/C(=C\c1cc(C)cc2c3c(n(C)c12)CCN(C)C3)c1ccc(C)nc1 [A15],–
14,C/C(=C\c1cc(C)cc2c3c(n(C)c12)CCN(C)C3)c1ccncc1 [A11],37.6
27,Cc1cc2c3c(c1)c1c(n3C[C@@](C)(c3ccncc3)O[C@H]2C)CCN(C)C1 [B162],–
43,Cc1cc2c3c(c1)c1c(n3CC(C)(c3ccncc3)OC(C)C2)CCN(C)C1 (stereo not shown) [B165],–
17,Cc1cc(C#Cc2nccs2)c2[nH]c3c(c2c1)CN(C)CC3 [A16],–
5,Cc1cc(CCc2ccc(C)nc2)c2c(c1)c1c(n2C)CCN(C)C1 [A13],19.7
-1,Cc1cc(C#Cc2cccs2)c2[nH]c3c(c2c1)CN(C)CC3 [A8],–
4,Cc1cc2c3c(c1)c1c(n3C[C@](C)(c3ccncc3)O[C@H]2C)CCN(C)C1 [B163],–
8,C#Cc1cc(C)cc2c3c(n(C)c12)CCN(C)C3 [A10],–
-3,Cc1cc(/C=C/c2ccc(C)nc2)c2c(c1)c1c(n2C)CCN(C)C1 [A14],–
30,Cc1ccc2c(c1)c1c3n2CC(c2ccncc2)=CCC3(C)CN(C)C1 (stereo not shown) [D11],30.3
21,Cc1cc(C#Cc2ccncc2)c2c(c1)c1c(n2C)CCN(C)C1 [A17],10.8
6,Cc1cc(C#Cc2ccc(C)nc2)c2c(c1)c1c(n2C)CCN(C)C1 [A12],35.7
-9,Cc1cc(-c2ccc(F)cc2)c2c(c1)c1c(n2C)CCN(C)C1 [A7],–
-7,Cc1cc(-c2ccncc2)c2c(c1)c1c(n2C)CCN(C)C1 [A9],15.8
-8,Cc1cc2c3c(c1)c1c(n3CC(C)(c3ccc(C)nc3)OC(C)C2)CCN(C)C1 (stereo not shown) [B160],–
72,Cc1cc2c3c(c1)c1c(n3C(c3ccccc3)C2)CCN(C)C1 (stereo not shown) [B12],–
